Assay results reported in the supplement of paper PMC10307832.

Key:
Assay in all cases: relative viability (nuclei count vs DMSO), 5 days (fraction); higher = more cells survive
IU1-47 = compound: CC1=CC(=C(N1C2=CC=C(C=C2)Cl)C)C(=O)CN3CCCCC3 [IU1-47]
Method in brief: (§1)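 Hoechst staining, done together with fixation and permeabilisation, marked nuclei for 4× imaging and MetaXpress counting. This followed 5 days without medium change after lung cancer cell lines, kept overnight at 37 °C in 1536-well plates, were pinned with five library-drug doses (not always all listed) spaced by √10 on vehicle-anchored plates. Viability is the ratio of treated-well to vehicle-well nuclei, expressed as a median across plates. Plates passed only at control CV below 25% with at least one doubling.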

FG-4592 = compound: Cc1nc(C(=O)NCC(=O)O)c(O)c2ccc(Oc3ccccc3)cc12 [FG-4592]
Method in brief: as §1

FG-4592 + Pemetrexed = compound: Cc1nc(C(=O)NCC(=O)O)c(O)c2ccc(Oc3ccccc3)cc12 [FG-4592] + Nc1nc2[nH]cc(CCc3ccc(C(=O)N[C@@H](CCC(=O)O)C(=O)O)cc3)c2c(=O)[nH]1 [Pemetrexed] (partner 0.2 µM)
Method in brief: (§2)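 Lung cancer cell lines were seeded in 1536-well plates and dosed by pin tool the next day, with either a single drug or a fixed anchor-drug dose combined with five library-drug doses (not always all listed) spaced in √10 steps. Five days later, one step fixed the cells and stained their nuclei (final 0.05% Triton X-100, 1% formaldehyde, 1 ug/ml Hoechst), and nuclei were counted on 4× images. Relative viability is the nuclei count in treated wells divided by the count in vehicle wells, and each value is the median of duplicate plates.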

IU1-47 + Alpelisib = compound: CC1=CC(=C(N1C2=CC=C(C=C2)Cl)C)C(=O)CN3CCCCC3 [IU1-47] + Cc1nc(NC(=O)N2CCC[C@H]2C(N)=O)sc1-c1ccnc(C(C)(C)C(F)(F)F)c1 [Alpelisib] (partner 2 µM)
Method in brief: as §2

Row | Cell Line | relative viability (IU1-47; 0.08 µM) | relative viability (IU1-47; 0.253 µM) | relative viability (IU1-47; 0.8 µM) | relative viability (IU1-47; 2.53 µM) | relative viability (IU1-47; 8 µM) | relative viability (FG-4592; 0.08 µM) | relative viability (FG-4592; 0.253 µM) | relative viability (FG-4592; 0.8 µM) | relative viability (FG-4592; 2.53 µM) | relative viability (FG-4592; 8 µM) | relative viability (FG-4592 + Pemetrexed; first compound 0.08 µM) | relative viability (FG-4592 + Pemetrexed; first compound 0.253 µM) | relative viability (FG-4592 + Pemetrexed; first compound 0.8 µM) | relative viability (FG-4592 + Pemetrexed; first compound 2.53 µM) | relative viability (FG-4592 + Pemetrexed; first compound 8 µM) | relative viability (IU1-47 + Alpelisib; first compound 0.08 µM) | relative viability (IU1-47 + Alpelisib; first compound 0.253 µM) | relative viability (IU1-47 + Alpelisib; first compound 0.8 µM) | relative viability (IU1-47 + Alpelisib; first compound 8 µM) | relative viability (IU1-47 + Alpelisib; first compound 2.53 µM)
1 | 201T | 0.961 | 0.99 | 1.07 | 0.53 | 0.941 | 0.941 | 0.955 | 0.974 | 1 | 0.982 | 0.355 | 0.331 | 0.305 | 0.29 | 0.308 | 1.08 | 1.04 | 0.938 | 1.04 | 
2 | A549 | 1.06 | 1.07 | 0.978 | 0.937 | 1.01 | 0.979 | 0.86 | 0.974 | 1.02 | 0.911 |  |  |  |  |  | 0.795 | 0.767 | 0.751 | 0.642 | 0.936
3 | A-427 | 1.03 | 1.04 | 1.12 | 0.549 | 0.956 | 0.923 | 0.916 | 0.797 | 0.866 | 0.897 | 0.874 | 0.96 | 0.895 | 0.986 | 0.902 | 1.09 | 1.08 | 1.14 | 1.04 | 
4 | ABC-1 | 1.03 | 1.01 | 0.888 |  | 0.876 | 0.814 | 0.824 | 0.924 | 0.949 | 0.77 |  |  |  |  |  | 1.12 | 1.3 | 0.977 | 1.1 | 
5 | BEN | 1.02 | 1.01 | 1.12 | 0.781 | 0.971 | 0.787 | 0.734 | 0.822 | 1.03 | 0.733 | 0.548 | 0.649 | 0.592 | 0.822 | 0.726 | 1.06 | 1.13 | 1.24 | 0.834 | 0.973
6 | CAL-12T | 0.916 | 0.919 | 1.03 | 0.826 | 0.879 | 0.973 | 0.864 | 1.05 | 0.906 | 0.894 | 1.21 | 1.3 | 1.3 | 0.974 | 1.04 | 1.31 | 1.39 | 1.47 | 0.823 | 1.18
7 | Calu-6 | 1 | 1.06 | 1.07 | 1.04 | 1.02 | 0.945 | 0.995 | 1.03 | 0.975 | 1.02 |  |  |  |  |  | 0.907 | 1.01 | 0.989 | 1.25 | 0.985
8 | ChaGo-K-1 | 0.982 | 0.997 | 1.04 | 0.811 | 0.821 | 0.97 | 0.975 | 0.935 | 0.967 | 0.937 | 0.266 | 0.258 | 0.26 | 0.26 | 0.274 |  |  |  |  | 
9 | EBC-1 | 1.06 | 0.954 | 1.05 | 0.921 | 0.867 | 1.07 | 0.977 | 0.95 | 0.94 | 0.953 |  |  |  |  |  | 0.863 | 0.742 | 0.805 | 0.676 | 0.722
10 | IA-LM | 1.11 | 1.08 | 1.08 | 1.01 | 0.884 | 0.913 | 0.933 | 0.894 | 0.859 | 0.764 |  |  |  |  |  | 0.738 | 0.595 | 0.854 | 0.526 | 0.679
11 | NCI-H522 | 0.959 | 0.975 | 1.01 | 0.82 | 0.874 | 0.958 | 0.947 | 0.761 | 0.992 | 0.823 | 1.11 | 0.878 |  | 0.728 | 0.869 |  |  |  |  | 
12 | NCI-H727 | 1.03 | 0.938 | 1.12 | 0.755 | 0.867 | 0.88 | 0.921 | 0.894 | 0.944 | 0.992 |  |  |  |  |  | 0.712 |  | 0.647 | 0.377 | 0.626
13 | NCI-H1299 | 0.995 | 1.05 | 1.06 | 1 | 1.02 | 0.974 | 0.98 | 0.982 | 0.99 | 1.02 |  |  |  |  |  | 1.05 | 1.11 | 1.13 | 0.987 | 1.13
14 | NCI-H1648 | 0.947 | 1.17 | 1.17 | 0.557 | 0.552 | 0.798 | 0.926 | 0.907 | 0.83 | 1.28 | 0.753 | 0.786 |  | 0.595 | 1.12 |  |  |  |  | 
15 | NCI-H1650 | 0.9 | 1.04 | 0.951 | 0.831 | 0.845 | 0.835 | 0.858 | 0.986 | 0.935 | 0.979 | 0.388 | 0.346 | 0.409 | 0.362 | 0.344 |  |  |  |  | 
16 | NCI-H1703 | 1.03 | 0.75 | 0.894 | 0.921 | 0.922 | 0.901 | 0.823 | 0.935 | 0.904 | 0.772 |  |  |  |  |  | 0.264 | 0.273 | 0.286 | 0.301 | 0.355
17 | NCI-H2342 | 1.03 | 1.03 | 1.28 | 1.15 | 0.985 | 0.985 | 0.97 | 0.839 | 0.812 | 0.82 | 0.682 | 0.767 | 0.77 | 0.8 | 0.738 |  |  |  |  | 
18 | SW 900 | 0.771 | 0.589 | 0.82 | 0.68 | 0.742 | 0.699 | 0.954 | 0.514 | 0.913 | 1.13 |  | 0.48 |  | 0.493 | 0.487 |  |  |  |  | 
